These results are taken from patent US7803844B2, “Composition for preventing and/or treating bone disease, physiologically functional or health food containing thereof, and pharmaceutical containing thereof as active ingredients” (Erina Co. Inc., priority 2004, dated 2010).

Data set [1] concerns M-CSF dependent cells derived from mice bone marrow cells (BMM). Nature of the data set: Inhibition assay II of the early stage differentiation of osteoclast (TRAP activity). The class given is cell-based, mouse.
Experimental: Mouse bone marrow cells were obtained from femurs and shanks of male ddy mice from 6 to 9 week age (Chubu Kagaku Shizai Co. Ltd.)
From 6 to 9 week ages of ddy mice, the femurs and shanks were excised. The bone row cells were extruded from these bones by using a syringe with 22 G×1 and ¼ gauge needle to obtain.
Obtained bone marrow cells were suspended in 10% FBS-MEM supplemented with 100 μg/mL of sodium streptomycin, 100 U/mL of sodium penicillin G, 50 ng/mL of M-CSF, and 1 ng/mL of TGF-β, and then inoculated to each well of the 96-well microplate at the cell concentration of 1×10^6 cells/0.1 mL/well. Then, the plates were incubated under the presence of 5% CO2, at 37° C.
After 3 days incubation, the culture medium was exchanged to that including 50 ng/mL of M-CSF and 50 ng/mL of osteoclast differentiation factor (DF/RANKL), simultaneously honokiol prepared as the same concentration as used in the example 1 was added. The medium of the control group was exchanged that including M-CSF and ODF/RANKL, but no honokiol. The plates were further incubated under the condition of the presence of 5% CO2, at 37° C.
After 1.5 days from the medium exchange, tartrate resistant acid phosphatase activity, the early stage differentiation marker, was measured. Medium in each well was discarded and washed plate with PBS, the cells in the well was fixed for 15 minutes by using 10% HCHO/PBS. Furthermore, the cells were fixed by using ethanol-acetone (1:1) mixture. After fixation, the fixed mixture was discarded and dried at room temperature. After drying, tartrate resistant acid phosphatase (TRAP) of the cells in each well was measured and stained similarly to those in the example 1.
The inhibition assay of the early stage differentiation of osteoclast was carried out similarly to the described above, except honokiol used in the above mentioned (3-2) was substituted to magnolol, and its concentration was from 20 to 60 μM.
Data set [2] has as its system MφRAW264 cells. The experiment in a line: Proliferated cell number counting assay (XTT cell viability). As to conditions: XTT, 3 days. The method, then: As a non-RI method for determining cell proliferation and cell viability, color reaction by using XTT was employed. MφRAW264 cells were suspended in 10% FBS-MEM, and plated into the 96-well microplate at 0.4×10^4 cells/0.1 mL; then incubated for 1 day. Subsequently, 10% FBS-MEM solution of osteoclast differentiation factor (ODF/RANKL), 100 ng/mL, was added into 0.1 mL per well at final concentration of RANKL, 50 ng/mL. At the same time, honokiol solution at respective concentration was added into the wells. For the control wells, equal volume of methanol not including honokiol was added.
After 3 days incubation, the proliferated cells were counted by using commercially available Cell Proliferation Kit II (Roche Diagnostics Inc., Cat. No. 1 465 015) to obtain the cell viability. The procedure was carried out according to the instruction manual attached, and brief summaries were as follows.
XTT labeling reagent and electron coupling reagent included in the kit were mixed at the ratio of 50:1, and 50 μL of mixture was added per 0.1 mL of medium in each well; then reacted for 4 hours at 37° C. After the termination of the reaction, absorbance at 492 nm of the wave length was measured by using ELISA plate reader (Dainippon Pharma Co.), wherein the reference wave length was 690 nm.
In the above-mentioned (2-2), the same cell proliferation counting assay II was performed instead of honokiol to magnolol and their concentration used was at the range from 20 to 60 μM.

Data set [3] relates to M-CSF dependent cells derived from mice bone marrow cells (BMM). Nature of the data set: Cell proliferation counting assay (XTT) in bone marrow derived cells. As to conditions: mouse bone marrow M-CSF dependent cells. The method, then:
Alternatively, the cell proliferation counting assay was performed as the same as that in the example 1, the cell viability was obtained. In FIG. 2A, the cell viability was shown as white columns.
In general terms: Tetrazolium dyes change colour on reduction, which living cells bring about.

Data set [4] relates to MφRAW264 cells. Nature of the data set: Inhibition assay I of the early phase differentiation of osteoclast (TRAP activity). It is filed as cell-based. An excerpt:
Macrophage RAW264 cell line (RIKEN. cell No. CB0535, herein below, referred to as “MφRAW264”), which may differentiate to osteoclast-like cells, was used in the inhibition assay of the early phase differentiation of osteoclast. α-MEM (Invitrogen Co., Cat. No. 11900-024) including 10% of fetal bovine serum (Asahi Technoglass Co., (IWAKI), Cat. No. IWK-500) was used for cultivating MφRAW264. Osteoclast differentiation factor (ODF/RANKL) was purchased from Pepro Tech Inc., Cat. No. 310-01. Inhibition assay I of the early phase differentiation of osteoclast was performed for evaluating the inhibition level of the bone resorption in vitro, the differentiation assay of osteoclast from MφRAW264 cells in early stage. Results of the osteoclast assay were evaluated by determining tartrate resistant acid phosphatase (TRAP) activity, an early stage differentiation marker, and TRAP staining. By using these two indices, activities of flavones from MφRAW264 cells to osteoclast are quantitatively evaluated. MφRAW264 cells were suspended in a α-MEM supplemented 10% of fetal bovine serum (FBS), which is referred to as “10% FBS-MEM herein below”, and plated at 1×10^5 cells/10 mL in 100 mm φ dishes. Then, the dishes were incubated under the presence of 5% of CO2, at 37° C. for 3 days. After confirmed that the plated cells in the dishes became confluent, the incubation was finished. Subsequently, when the cells became confluent, they were treated by using 0.05% of trypsin and Hank's balanced salt solution containing 0.53 mM of EDTA (0.05% Trypsin-0.53 mM EDTA/HBSS (Invitrogen Co., Cat. No. 25300-054) to scrape them, and then suspended in 10% FBS-MEM to plate 0.4×10^4 cells/0.1 mL per each well of 96-well microplates. Then, the plates were incubated one day under the same condition as described above. Osteoclast differentiation factor (ODF/RANKL) was dissolved in 10% FBS-MEM to prepare 100 ng/mL of solution. Alternatively, a stock solution of honokiol was prepared at the concentration of 10 mM in methanol, and stored at −20° C. […] Equal volume of methanol was solely added into the control wells. Honokiol used in the following experiments were the solutions having each concentration prepared as described above. […] Equal volume of methanol without honokiol was added into the control wells. […] Incubation medium in each well of the 96-well microplate was discarded. […] After drying, tartrate resistant acid phosphatase activity was determined (hereinafter, it is referred to as “TRAP assay”), and staining of cells in the well was performed. […] Thirty minutes later, the reaction was terminated by adding 0.1 mL of 0.1 M NaOH, and released p-nitrophenol was determined by the spectrophotometer (Dainippon Pharmaceutical Co. Ltd.) at wave length 405 nm. […]

Data set [5] deals with acid phosphatase. The note with it: cited from earlier work.

Regarding `C=CCc1ccc(O)c(-c2cc(CC=C)ccc2O)c1` [magnolol], the half-maximal inhibitory concentration (IC50) is 30 µM in data set [1] (Mus musculus, Bone marrow cell, read-out: IC50, inhibition of differentiation from M-CSF dependent bone marrow cells to osteoclast induced by RANKL) and 30 µM in data set [4] (Osteoclast, 72 h, read-out: IC50, inhibition of MφRAW264 cells to osteoclast by RANKL). Besides, the “TRAP activity (control %)” value in data set [1] (mouse bone marrow M-CSF dependent cells, 50 ng/mL RANKL, 1.5 days, honokiol 3-30 μM, magnolol 20-60 μM) is reported as “dose-dependently inhibited”; in data set [4] (MφRAW264 cells stimulated by 50 ng/mL ODF/RANKL, 3 days, honokiol 3-30 μM, magnolol 20-60 μM), “dose-dependently inhibited”. Also, in data set [2] (MφRAW264 cells, honokiol 3-30 μM, magnolol 20-60 μM), the “cell viability (ratio against control wells = 100)” value is given as “seldom decreased”. Further, in data set [2], the “non-specific cytotoxicity to MφRAW264 cells” value is listed as “does not show non-specific cytotoxicity”. In addition, the “non-specific cytotoxicity (XTT assay)” value in data set [3] is on record as “did not show the non-specific cytotoxicity”. For the same compound, in data set [5], the “inhibition activity of acid phosphatase” value is “has the inhibition activity of the acid phosphatase”.

The IC50 is the midpoint of a concentration-inhibition curve.
